Experimental data from paper PMC3298469, “A selective and potent CXCR3 antagonist SCH 546738 attenuates the development of autoimmune diseases and delays graft rejection” (BMC Immunology, 2012).
Like-named read-outs stand apart in the source and are kept apart here.

How the values were obtained:
CXCR3 = biological target: T1, CXCR3 (Homo sapiens, UniProt P49682); test: [125I]hCXCL10 competition binding (SPA, Ba/F3 membranes); set-up: expressed in transfected cells; host or cells: mouse pro-B Ba/F3 cells (vector pME18Sneo), membrane preparation
T1 sequence (P49682 1-368): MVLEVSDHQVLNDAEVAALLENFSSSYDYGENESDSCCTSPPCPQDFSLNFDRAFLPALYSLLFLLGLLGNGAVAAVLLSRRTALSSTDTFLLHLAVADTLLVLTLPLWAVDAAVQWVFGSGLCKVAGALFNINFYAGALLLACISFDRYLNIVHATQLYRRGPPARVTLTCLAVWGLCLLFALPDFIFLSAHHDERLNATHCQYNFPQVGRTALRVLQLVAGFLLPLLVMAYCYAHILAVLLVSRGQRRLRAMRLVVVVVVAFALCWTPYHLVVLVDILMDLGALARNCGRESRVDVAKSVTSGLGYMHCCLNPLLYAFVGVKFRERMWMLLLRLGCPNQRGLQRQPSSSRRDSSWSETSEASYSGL
Experimental: The cDNAs encoding human, mouse and rat CXCR3 were generated based on the published sequences: human (NM_001504), mouse (NM_009910), rat (NM_053415). The cDNAs for monkey and dog CXCR3 were cloned in the lab. All CXCR3 cDNAs were cloned into the mammalian expression vector pME18Sneo, a derivative of the SRα expression vector as described previously. IL-3-dependent mouse pro-B cells Ba/F3 were transfected to express CXCR3 of different species and cell membranes were prepared as described previously.
A scintillation proximity assay was used for radioligand competition binding assays as described previously with some modifications. For each assay point, 1 µg of membrane was preincubated for 1 hr with 300 µg wheat germ agglutinin (WGA) coated SPA beads (GE Healthcare Life Sciences) in the binding buffer (50 mM HEPES, 1 mM CaCl2, 5 mM MgCl2, 125 mM NaCl, 0.002% NaN3, 1.0% BSA) at room temperature. The beads were spun down, resuspended in the binding buffer and transferred to a 96-well Isoplate (Wallac, Gaithersburg, MD). The indicated concentrations of ^125I-hCXCL10, ^125I-hCXCL11 or ^35S-SCH 535390 with a series of titrations of SCH 546738 were added to start the reaction. After indicated reaction times at room temperature, the amount of radioactivity bound to the SPA beads was determined with a Wallac 1450 Microbeta counter (Wallac).
The ability of SCH 546738 to compete the binding of [^125I]hCXCL10 and [^125I]hCXCL11 to human CXCR3 receptor was determined using various concentrations of [^125I]hCXCL10 and [^125I]hCXCL11 as described in Methods. After 3 hr reaction, specific counts relative to input counts (B/B0) in the presence of increasing concentrations of SCH 546738 are plotted.

CCR7 = CCR7 (Homo sapiens, UniProt P32248); test: human activated T cell chemotaxis induced by CCL19; format: cell-based; set-up: endogenous in cells; details: 1, 10 or 100 nM compound
Experimental: The preparation of human activated T cells was performed as described previously. Human peripheral blood lymphocytes were prepared by Ficoll-Hypaque centrifugation, depleted of monocytes, and stimulated for 2 days with 1 µg/ml PHA (Murex Diagnostics, Dartford, U.K.) and 100 U/ml IL-2 (Sigma, St. Louis, MO) in RPMI 1640 supplemented with 10% fetal bovine serum (FBS), 2 mM L-glutamine, 100 µg/ml streptomycin, 100 U/ml penecillin, 1% non-essential amino acids and 2 mM HEPES. Following stimulation, peripheral blood lymphocytes were cultured in above media containing 5% conditioned media (Sigma) for up to 15 days.
Human activated T cell chemotaxis assays were performed using 96-well ChemoTx® microplates (Neuro Probe, Inc., Gaithersburg, MD) with a 3 µm filter as per manufacturers' instructions. Activated T cells were washed with RPMI medium twice, and then resuspended in the medium containing 20% FBS. 1.25 × 10^5 cells/reaction were mixed with indicated concentrations of the compound and placed on the filter. The compound and chemokines were mixed and placed in the bottom well of the ChemoTx system. […] The number of migrated cells was measured using the Cell Titer Glo Luminescent Assay from Promega (Madison, WI) as per vendor's instructions. Chemotaxis is expressed as a chemotactic index, which is a ratio versus the one without chemokines (spontaneous migration). […]

CCR7, sequence (P32248 25-378): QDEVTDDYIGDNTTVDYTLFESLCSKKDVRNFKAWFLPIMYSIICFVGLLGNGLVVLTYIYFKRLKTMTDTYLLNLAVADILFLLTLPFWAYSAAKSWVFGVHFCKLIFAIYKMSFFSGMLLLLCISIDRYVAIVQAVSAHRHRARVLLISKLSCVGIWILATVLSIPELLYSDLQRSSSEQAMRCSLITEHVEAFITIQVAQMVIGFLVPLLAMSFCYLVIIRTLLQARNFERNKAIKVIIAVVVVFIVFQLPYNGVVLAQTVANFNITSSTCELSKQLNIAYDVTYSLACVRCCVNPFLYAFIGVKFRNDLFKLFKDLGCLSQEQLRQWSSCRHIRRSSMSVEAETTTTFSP

CC[C@H]1CN(c2nc(N)c(C(N)=O)nc2Cl)CCN1C1CCN(Cc2ccc(Cl)cc2)CC1 [SCH 546738]
IC50 (CXCR3; Human CXCR3, [125I]hCXCL10, read-out: IC50 (nM) (CXCL10)): 0.8 nM | IC50 (CXCR3; [125I-hIP-10] 100 pM, 3 hr reaction, read-out: IC50): 1 nM | IC50 (CXCR3; [125I-hIP-10] 500 pM, 3 hr reaction, read-out: IC50): 1.2 nM | IC50 (CXCR3; [125I]hCXCL10 25-500 pM, read-out: IC50 (constant, independent of input concentration)): ~1 nM | mode of antagonism of CXCL10 and CXCL11 binding to CXCR3 (CXCR3; both CXCL10 and CXCL11): non-competitive antagonist | IC50 (CXCR3; range over both radioligands CXCL10 and CXCL11, read-out: IC50 for displacing radiolabeled CXCL10 and CXCL11 from human CXCR3): 0.8 to 2.2 nM | effect on T cell chemotaxis induced by the CCR7 ligand CCL19 (CCR7): did not affect
